US20230048512A1, “COCRYSTALS OF PTEROSTILBENE AND COMPOSITIONS COMPRISING THEM” (CENTER FOR INTELLIGENT RESEARCH IN CRYSTAL ENGINEERING, S.L., priority 2019, published 2023)
“And” between values parts separate entries of the source, which are not always exact repeats. Equal values may be shown once.

Assays:
[1] = Dissolution rate of tablets of the solid forms in FaSSIF v2 (small-scale dissolution assay, UV quantification, Noyes-Whitney fit); type: physicochemical; settings: FaSSIF v2 (pH 6.5), 25° C., 120 minutes, 3 mm tablet
Method: 1. Molar Extinction Coefficient (MEC) determination in FaSSIF v2 medium
Molar extinction coefficients of pterostilbene and of each coformer were determined by UV-metric titration using a GlpKaTM titrator (Sirius Analytical Instruments, UK). Briefly, a 10 mM stock solution of sample was prepared in DMSO. […] of sample stock solution and 0.25 mL of a 15 mM potassium phosphate buffer were added to 10 mL of a 0.15 M KCI solution, which in turn contained 17.9 mg of FaSSIF v2 powder. The pH of the sample solution was adjusted to 2 with 0.5 M HCI before starting the titration, and then the titration was done using 0.5 M KOH up to pH 12. The UV absorption spectra (between 250 and 450 nm) of the solution were recorded at each titrant addition by a fiber optic dip-probe. The collected data were refined through the RefinamentPro software, and the pKa values and Molar Extinction Coefficients obtained by Target Factor Analysis.
2. Dissolution Rate experiments • Tablet production: tablets of 3 mm diameter were prepared using a manual hydraulic tablet press (Applied Measurements Ltd, UK). The applied pressure was 100 Kg for 2 min. From 10 to 15 mg of each solid form, pterostilbene or cocrystal, were weighted. The total exposed surface area was 0.5 cm^2. • Medium: FaSSIF v2 (pH 6.5), with corresponding amount of phosphoric (28.4 mM) acid instead of maleic acid. • Dissolution tests were performed with a small-scale dissolution assay installed in a GlpKaTM titrator (Sirius Analytical Instruments, UK). • Dissolution time and temperature: 120 minutes and 25° C. • Procedure: 15 mL of FaSSIF v2 was added into the sample vial containing the tablet. Spectra collection started immediately after. Spectra were recorded every 30 seconds between 250 and 450 nm through a Sirius D-PAS spectrometer with a bifurcated optic fibre dip probe (Hellma Analytics). The medium was stirred at a constant rate.
The concentration of pterostilbene in solution at each time point is determined from the spectroscopic data by applying the Beer-Lambert law, using previously determined molar extinction coefficients of pure pterostilbene. Spectrum regions where signal is saturated (A>1.5) or presenting medium interferences were discarded. Then, the concentration data were converted into absolute sample quantities, and used to generate the graphs showing the sample quantity vs. time.
4. Determination of the dissolution rate
Dissolution rate is obtained through the fit of the first order Noyes-Whitney exponential equation to the data: […]
In this equation, [X]t is the weight in grams of compound in solution at the experiment time (min); S is the extrapolated solubility (g) of pterostilbene; kd is the rate constant for dissolution (min^−1); and to (min) is a term allowing for a temporal offset. Results are calculated using a refinement process in which S, kd and t0 are varied in order to minimize the root mean square deviation between the modelled concentrations and the measured concentrations. The dissolution rate (g min^−1) is given by the product kdS (T. Gravestock et al., 2011).

[2] = Pharmacokinetics of pterostilbene in rat plasma after single oral administration; type: in vivo, Male Sprague-Dawley rats; settings: for Plasma concentration of pterostilbene, Mean (arithmetic) / Plasma concentration of pterostilbene, individual animals 1-5: 20 mg/kg P56-VIII (13.5 mg/kg as pterostilbene) single oral
Method: In-life phase • Animals: Male Sprague-Dawley rats (weight: 417.9-458.6 g) • Administration: Oral (single dose) • Dose: 20 mg/kg P56 (pterostilbene, free base) 20 mg/kg P56-VIII (cocrystal of pterostilbene and picolinic acid; 13.5 mg/kg as pterostilbene free base) • Formulation: Suspension (0.5% carboxymethylceluulose, CMC) • Adm. volume: 10 ml/kg • Fed/fasted state: Fasted (at least 8 hours prior dosing) • Sampling: Six blood samples/animal (1, 2, 4, 6, 8 and 24 hours post-adm.) • Plasma samples: Plasma samples using K3-EDTA as anticoagulant.
Samples were immediately frozen at −80° C. until their analysis
Pharmacokinetic analysis was performed by non-compartmental pharmacokinetic analysis using Kinetica v5 software (Alfasoft Limited, Luton, UK). Descriptive statistics was performed using Microsoft Excel spreadsheet 2007 (Microsoft Inc, Redmond, US). Plasma bioanalysis was made by LC-MS/MS.
Concentration values below the lower limit of quantification (BLQ) were set to zero, whereas missing concentration values were not considered for statistical and pharmacokinetic evaluations. All computations used the nominal sampling times, nominal doses and concentrations levels were expressed as free base. The numerical data presented below were computer generated. Because of rounding, recalculation of derived values from individual data presented herein below could, in some instances, yield minor variation.
The area under the plasma concentration-time curve from 0 to t (AUC0-t) was determined by using the trapezoidal rule. […] The terminal half-life was determined according to the following rules: (a) time interval equal to at least 1.5 x t1/2, (b) regression analysis (straight line on the log-transformed scale) contained data from at least 3 different time points in the terminal phase and as many data points as possible (always including the last quantifiable concentration but excluding the Cmax), and (c) the coefficient of determination (r^2) was ≥0.85. If at least one of these three conditions was not fulfilled, the terminal half-life and the parameters depending on t1/2 were listed but flagged as not reliably calculated. If the percentage of extrapolated AUC was more than 20%, the individual AUCinf result were listed but flagged as not reliably calculated. Flagged parameters were not included in descriptive statistics and statistical testing procedures.

[3] = 20 mg/kg P56-VIII (13.5 mg as pterostilbene) single oral, fasted male SD rats
[4] = 20 mg/kg cocrystal (13.5 mg/kg as pterostilbene) vs 20 mg/kg P56, single oral, rats

COc1cc(/C=C/c2ccc(O)cc2)cc(OC)c1.COc1cc(/C=C/c2ccc(O)cc2)cc(OC)c1.Cc1cnc(C)c(C)n1 [cocrystal of pterostilbene:2,3,5-trimethylpirazine (2:1)]
dissolution rate [1]: 52.0 ± 5.8 nmol/min

COc1cc(/C=C/c2ccc(O)cc2)cc(OC)c1.Cn1c(=O)c2c(ncn2C)n(C)c1=O [Pterostilbene:caffeine cocrystal, reference compound]
dissolution rate [1]: 45.4 ± 9.2 nmol/min

COc1cc(/C=C/c2ccc(O)cc2)cc(OC)c1.COc1cc(/C=C/c2ccc(O)cc2)cc(OC)c1.O=C(O)c1ccccn1 [cocrystal of pterostilbene:picolinic acid (2:1)]
dissolution rate [1]: 351.3 ± 18.9 nmol/min

COc1cc(/C=C/c2ccc(O)cc2)cc(OC)c1.ClCCl.Cn1c(=O)c2[nH]cnc2n(C)c1=O [Pterostilbene:theophylline cocrystal, cocrystal solvate of pterostilbene:theophylline: dichloromethane (1:1:1)]
dissolution rate [1]: 33.5 ± 6.7 nmol/min

COc1cc(/C=C/c2ccc(O)cc2)cc(OC)c1.COc1cc(/C=C/c2ccc(O)cc2)cc(OC)c1.NCCN [Pterostilbene:ethylendiamine cocrystal, pterostilbene:ethylendiamine cocrystal (2:1)]
dissolution rate [1]: 176.1 ± 12.6 nmol/min

COc1cc(/C=C/c2ccc(O)cc2)cc(OC)c1.O=C(O)c1ccccn1 [cocrystal of pterostilbene:picolinic acid (1:1)]
dissolution rate [1]: 427.8 ± 29.5 nmol/min
AUC0-t, Mean [2, 3]: 4699 ng·h/mL
AUC0-t, individual animals 1-5 [2, 3]: 4384 ng·h/mL and 3776 ng·h/mL and 4059 ng·h/mL and 9824 ng·h/mL and 1452 ng·h/mL
AUCinf, Mean [2, 3]: 4772 ng·h/mL
AUCinf, individual animals 1-5 [2, 3]: 4422 ng·h/mL and 3805 ng·h/mL and 4178 ng·h/mL and 9855 ng·h/mL and 1602 ng·h/mL
Cmax, Mean [2, 3]: 567.8 ng/mL
Cmax, individual animals 1-5 [2, 3]: 695.2 ng/mL and 337.4 ng/mL and 513.3 ng/mL and 991.8 ng/mL and 301.1 ng/mL
t1/2 (terminal elimination half-life), Mean [2, 3]: 3.3 h
t1/2 (terminal elimination half-life), individual animals 1-5 [2, 3]: 3.7 h and 3.2 h and 5.1 h and 2.8 h and 1.9 h
tmax, Median [2, 3]: 2 h
tmax, individual animals 1-5 [2, 3]: 1 h and 6 h and 4 h and 2 h
Plasma concentration of pterostilbene, Mean (arithmetic) ([2]; fasted male SD rats, 1 h): 504.7 ng/mL
Plasma concentration of pterostilbene, individual animals 1-5 ([2]; fasted male SD rats, 1 h): 513.3 ng/mL and 980.0 ng/mL and 189.8 ng/mL and 695.2 ng/mL and 145.5 ng/mL
Plasma concentration of pterostilbene, Mean (arithmetic) ([2]; fasted male SD rats, 2 h): 514.3 ng/mL
Plasma concentration of pterostilbene, individual animals 1-5 ([2]; fasted male SD rats, 2 h): 462.8 ng/mL and 952.8 ng/mL and 301.1 ng/mL and 587.9 ng/mL and 266.9 ng/mL
Plasma concentration of pterostilbene, Mean (arithmetic) ([2]; fasted male SD rats, 4 h): 451.7 ng/mL
Plasma concentration of pterostilbene, individual animals 1-5 ([2]; fasted male SD rats, 4 h): 262.6 ng/mL and 991.8 ng/mL and 224.7 ng/mL and 538.5 ng/mL and 240.8 ng/mL
Plasma concentration of pterostilbene, Mean (arithmetic) ([2]; fasted male SD rats, 6 h): 305.6 ng/mL
Plasma concentration of pterostilbene, individual animals 1-5 ([2]; fasted male SD rats, 6 h): 150.6 ng/mL and 663.7 ng/mL and 153.8 ng/mL and 222.5 ng/mL and 337.4 ng/mL
Plasma concentration of pterostilbene, Mean (arithmetic) ([2]; fasted male SD rats, 8 h): 214.8 ng/mL
Plasma concentration of pterostilbene, individual animals 1-5 ([2]; fasted male SD rats, 8 h): 210.5 ng/mL and 449.2 ng/mL and 53.5 ng/mL and 136.4 ng/mL and 224.6 ng/mL
Plasma concentration of pterostilbene, Mean (arithmetic) ([2]; fasted male SD rats, 24 h): 7.54 ng/mL
Plasma concentration of pterostilbene, individual animals 1-5 ([2]; fasted male SD rats, 24 h, BLQ = <5 ng/ml): 16.4 ng/ml and 7.67 ng/ml and BLQ and 7.16 ng/ml and 6.50 ng/ml
increase in AUCinf compared to the P56 formulation [2, 4]: about 10 fold
increase in Cmax compared to the P56 formulation [2, 4]: around 6 fold

COc1cc(/C=C/c2ccc(O)cc2)cc(OC)c1 [Pterostilbene (Form VI), Form VI of pterostilbene]
dissolution rate [1]: 7.4 ± 1.8 nmol/min

COc1cc(C=Cc2ccc(O)cc2)cc(OC)c1.COc1cc(C=Cc2ccc(O)cc2)cc(OC)c1.NCCN.O.O [pterostilbene:ethylendiamine:H2O cocrystal hydrate (2:1:2)]
dissolution rate [1]: 230.4 ± 26.59 nmol/min
